In PubChem BioAssay AID1919002 (Molecular Pharmacology Branch, DTP, NCI, 2023):
Where “and” joins values, the source holds several entries; their conditions need not be identical. Identical values can stand only once. One block for each compound: values may come before it.

Test system: 743489-274-T-PDC complex spheroid growth
Test: Anticancer human tumor 743489-274-T-PDC patient-derived renal cell carcinoma cell line growth inhibition [AhR]
Details: for viability, T/C: stronger effect = lower value
Outline: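 Agents were dosed in half-log steps down from roughly clinical Cmax, or from 10 microM where Cmax was unknown, alone and with AhR antagonists. Read-out: percent test/control growth of tumor spheroids containing HUVEC and MSC stromal cells.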

[1] = curve of first compound, second compound 0.1 µM
[2] = curve of first compound, second compound 0.316 µM
[3] = curve of first compound, second compound 1 µM
[4] = curve of first compound, second compound 3.16 µM
[5] = curve of first compound, second compound 10 µM
[6] = second compound 0.1 µM, first compound 0.0316 µM
[7] = second compound 0.1 µM, first compound 0.1 µM
[8] = second compound 0.1 µM, first compound 0.316 µM
[9] = second compound 0.1 µM, first compound 1 µM
[10] = second compound 0.1 µM, first compound 3.16 µM
[11] = second compound 0.1 µM, first compound 10 µM
[12] = second compound 0.316 µM, first compound 0.0316 µM
[13] = second compound 0.316 µM, first compound 0.1 µM
[14] = second compound 0.316 µM, first compound 0.316 µM
[15] = second compound 0.316 µM, first compound 1 µM
[16] = second compound 0.316 µM, first compound 3.16 µM
[17] = second compound 0.316 µM, first compound 10 µM
[18] = second compound 1 µM, first compound 0.0316 µM
[19] = second compound 1 µM, first compound 0.1 µM
[20] = second compound 1 µM, first compound 0.316 µM
[21] = second compound 1 µM, first compound 1 µM
[22] = second compound 1 µM, first compound 3.16 µM
[23] = second compound 1 µM, first compound 10 µM
[24] = second compound 3.16 µM, first compound 0.0316 µM
[25] = second compound 3.16 µM, first compound 0.1 µM
[26] = second compound 3.16 µM, first compound 0.316 µM
[27] = second compound 3.16 µM, first compound 1 µM
[28] = second compound 3.16 µM, first compound 3.16 µM
[29] = second compound 3.16 µM, first compound 10 µM
[30] = second compound 10 µM, first compound 0.0316 µM
[31] = second compound 10 µM, first compound 0.1 µM
[32] = second compound 10 µM, first compound 0.316 µM
[33] = second compound 10 µM, first compound 1 µM
[34] = second compound 10 µM, first compound 3.16 µM
[35] = second compound 10 µM, first compound 10 µM
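Also: spheroids exposed to agents for 7 days before readout.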
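For viability, T/C in this document: 100% = DMSO vehicle control wells.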

IC50 [1]: > 0.3 µM
IC50 [2]: > 0.3 µM
IC50 [3]: > 0.3 µM
IC50 [4]: > 0.3 µM
IC50 [5]: > 0.3 µM
Compound: Nc1ncn(C2CC(O)C(CO)S2)c(=O)n1 (configuration not stated) + Cc1ccccc1N=Nc1ccc(NC(=O)c2ccnn2C)c(C)c1
viability, T/C (second compound 0.1 µM, first compound 0.000949 µM): 102%
viability, T/C (second compound 0.1 µM, first compound 0.003 µM): 87.6%
viability, T/C (second compound 0.1 µM, first compound 0.00949 µM): 82.9%
viability, T/C (second compound 0.1 µM, first compound 0.03 µM): 71.4%
viability, T/C (second compound 0.1 µM, first compound 0.0949 µM): 85.5%
viability, T/C (second compound 0.1 µM, first compound 0.3 µM): 75.5%
viability, T/C (second compound 0.316 µM, first compound 0.000949 µM): 85.5%
viability, T/C (second compound 0.316 µM, first compound 0.003 µM): 81.7%
viability, T/C (second compound 0.316 µM, first compound 0.00949 µM): 80.4%
viability, T/C (second compound 0.316 µM, first compound 0.03 µM): 81.7%
viability, T/C (second compound 0.316 µM, first compound 0.0949 µM): 87.2%
viability, T/C (second compound 0.316 µM, first compound 0.3 µM): 74.7%
viability, T/C (second compound 1 µM, first compound 0.000949 µM): 85.7%
viability, T/C (second compound 1 µM, first compound 0.003 µM): 84.4%
viability, T/C (second compound 1 µM, first compound 0.00949 µM): 86.3%
viability, T/C (second compound 1 µM, first compound 0.03 µM): 78.3%
viability, T/C (second compound 1 µM, first compound 0.0949 µM): 80.4%
viability, T/C (second compound 1 µM, first compound 0.3 µM): 85.4%
viability, T/C (second compound 3.16 µM, first compound 0.000949 µM): 83.4%
viability, T/C (second compound 3.16 µM, first compound 0.003 µM): 83.2%
viability, T/C (second compound 3.16 µM, first compound 0.00949 µM): 83.1%
viability, T/C (second compound 3.16 µM, first compound 0.03 µM): 87%
viability, T/C (second compound 3.16 µM, first compound 0.0949 µM): 82.4%
viability, T/C (second compound 3.16 µM, first compound 0.3 µM): 79.3%
viability, T/C (second compound 10 µM, first compound 0.000949 µM): 76%
viability, T/C (second compound 10 µM, first compound 0.003 µM): 69.9%
viability, T/C (second compound 10 µM, first compound 0.00949 µM): 92.1%
viability, T/C (second compound 10 µM, first compound 0.03 µM): 81.2%
viability, T/C (second compound 10 µM, first compound 0.0949 µM): 83.3%
viability, T/C (second compound 10 µM, first compound 0.3 µM): 76.5%

IC50 [1]: > 10 µM
IC50 [2]: > 10 µM
IC50 [3]: > 10 µM
IC50 [4]: > 10 µM
IC50 [5]: > 10 µM
Compound: CC(C)c1c(-c2ccccc2)nc2c(C#N)c[nH]n2c1=O + CC(CO)NC(=O)c1cc(-c2ccc(Cl)cc2)nn(-c2cnn(C)c2)c1=O
viability, T/C [6]: 101%
viability, T/C [7]: 96.5%
viability, T/C [8]: 101%
viability, T/C [9]: 111%
viability, T/C [10]: 93.9%
viability, T/C [11]: 102%
viability, T/C [12]: 93%
viability, T/C [13]: 97.9%
viability, T/C [14]: 99.2%
viability, T/C [15]: 93.2%
viability, T/C [16]: 90.4%
viability, T/C [17]: 102%
viability, T/C [18]: 94.7%
viability, T/C [19]: 90.3%
viability, T/C [20]: 97.5%
viability, T/C [21]: 90.2%
viability, T/C [22]: 102%
viability, T/C [23]: 101%
viability, T/C [24]: 90%
viability, T/C [25]: 99.5%
viability, T/C [26]: 99.9%
viability, T/C [27]: 96.6%
viability, T/C [28]: 98.3%
viability, T/C [29]: 95%
viability, T/C [30]: 98.9%
viability, T/C [31]: 101%
viability, T/C [32]: 99.7%
viability, T/C [33]: 95.7%
viability, T/C [34]: 95.1%
viability, T/C [35]: 93.8%

IC50 (curve of compound): > 3 µM
Compound: O=C(C=Cn1cnc(-c2cc(C(F)(F)F)cc(C(F)(F)F)c2)n1)NNc1cnccn1
viability, T/C (compound 0.00949 µM): 102% and 119% and 97.2%
viability, T/C (compound 0.03 µM): 104% and 110% (2×)
viability, T/C (compound 0.0949 µM): 105% and 119% and 115%
viability, T/C (compound 0.3 µM): 115% and 107% and 129%
viability, T/C (compound 0.949 µM): 114% and 113% and 116%
viability, T/C (compound 3 µM): 93.8% and 94.4% and 92.8%

IC50 [1]: > 10 µM
IC50 [2]: > 10 µM
IC50 [3]: > 10 µM
IC50 [4]: > 10 µM
IC50 [5]: > 10 µM
Compound: CC1COCCN1c1cc(C2(S(C)(=N)=O)CC2)nc(-c2ccnc3[nH]ccc23)n1 (configuration not stated) + CC(CO)NC(=O)c1cc(-c2ccc(Cl)cc2)nn(-c2cnn(C)c2)c1=O
viability, T/C [6]: 97.5%
viability, T/C [7]: 89.1%
viability, T/C [8]: 94.7%
viability, T/C [9]: 92%
viability, T/C [10]: 98.7%
viability, T/C [11]: 96.7%
viability, T/C [12]: 90.2%
viability, T/C [13]: 99.5%
viability, T/C [14]: 96.3%
viability, T/C [15]: 86.2%
viability, T/C [16]: 85.3%
viability, T/C [17]: 91.3%
viability, T/C [18]: 99%
viability, T/C [19]: 84.7%
viability, T/C [20]: 95.3%
viability, T/C [21]: 101%
viability, T/C [22]: 87.4%
viability, T/C [23]: 93%
viability, T/C [24]: 92.7%
viability, T/C [25]: 86.8%
viability, T/C [26]: 86.1%
viability, T/C [27]: 90.3%
viability, T/C [28]: 84.5%
viability, T/C [29]: 103%
viability, T/C [30]: 109%
viability, T/C [31]: 94.2%
viability, T/C [32]: 89.9%
viability, T/C [33]: 83.3%
viability, T/C [34]: 93.7%
viability, T/C [35]: 102%

IC50 [1]: > 10 µM
IC50 [2]: > 10 µM
IC50 [3]: > 10 µM
IC50 [4]: > 10 µM
IC50 [5]: > 10 µM
Compound: O=C(c1cc(Cc2n[nH]c(=O)c3ccccc23)ccc1F)N1CCN(C(=O)C2CC2)CC1 + Cc1cncc(-c2nc(NCCc3c[nH]c4ccccc34)c3ncn(C(C)C)c3n2)c1
viability, T/C [6]: 91.6%
viability, T/C [7]: 96.4%
viability, T/C [8]: 99%
viability, T/C [9]: 88.3%
viability, T/C [10]: 86.1%
viability, T/C [11]: 85.6%
viability, T/C [12]: 87.1%
viability, T/C [13]: 84.4%
viability, T/C [14]: 94.2%
viability, T/C [15]: 86.2%
viability, T/C [16]: 82.1%
viability, T/C [17]: 88.4%
viability, T/C [18]: 98.8%
viability, T/C [19]: 99.9%
viability, T/C [20]: 94.5%
viability, T/C [21]: 93.2%
viability, T/C [22]: 89.9%
viability, T/C [23]: 85.4%
viability, T/C [24]: 93.3%
viability, T/C [25]: 102%
viability, T/C [26]: 100%
viability, T/C [27]: 90%
viability, T/C [28]: 85.7%
viability, T/C [29]: 95.1%
viability, T/C [30]: 104%
viability, T/C [31]: 102%
viability, T/C [32]: 111%
viability, T/C [33]: 102%
viability, T/C [34]: 105%
viability, T/C [35]: 103%

IC50 (compound alone, run of 08/16/2022): > 10 µM
Compound: Cc1cncc(-c2nc(NCCc3c[nH]c4ccccc34)c3ncn(C(C)C)c3n2)c1
viability, T/C (compound 0.1 µM): 95.2% [middle of 20 runs]
viability, T/C (compound 0.316 µM): 94.5% [middle of 20 runs]

IC50 (compound alone, run of 08/08/2022): > 10 µM
Compound: CC(CO)NC(=O)c1cc(-c2ccc(Cl)cc2)nn(-c2cnn(C)c2)c1=O (configuration not stated)
viability, T/C (compound 0.316 µM): 90% [middle of 21 runs]

IC50 [1]: > 1 µM
IC50 [2]: > 1 µM
IC50 [3]: > 1 µM
IC50 [4]: > 1 µM
IC50 [5]: > 1 µM
Compound: Nc1ncn(C2CC(O)C(CO)O2)c(=O)n1 (configuration not stated) + CC(CO)NC(=O)c1cc(-c2ccc(Cl)cc2)nn(-c2cnn(C)c2)c1=O
viability, T/C (second compound 0.1 µM, first compound 0.00316 µM): 88.6%
viability, T/C (second compound 0.1 µM, first compound 0.01 µM): 93.4%
viability, T/C [6]: 98.4%
viability, T/C [7]: 87.5%
viability, T/C [8]: 99.4%
viability, T/C [9]: 91.4%
viability, T/C (second compound 0.316 µM, first compound 0.00316 µM): 80.4%
viability, T/C (second compound 0.316 µM, first compound 0.01 µM): 89.9%
viability, T/C [12]: 91%
viability, T/C [13]: 98%
viability, T/C [14]: 84.5%
viability, T/C [15]: 85.3%
viability, T/C (second compound 1 µM, first compound 0.00316 µM): 94.8%
viability, T/C (second compound 1 µM, first compound 0.01 µM): 93.2%
viability, T/C [18]: 89.9%
viability, T/C [19]: 94.7%
viability, T/C [20]: 101%
viability, T/C [21]: 88.6%
viability, T/C (second compound 3.16 µM, first compound 0.00316 µM): 95.2%
viability, T/C (second compound 3.16 µM, first compound 0.01 µM): 85.2%
viability, T/C [24]: 96%
viability, T/C [25]: 92.3%
viability, T/C [26]: 85%
viability, T/C [27]: 84.3%
viability, T/C (second compound 10 µM, first compound 0.00316 µM): 88.2%
viability, T/C (second compound 10 µM, first compound 0.01 µM): 96%
viability, T/C [30]: 88.7%
viability, T/C [31]: 93.9%
viability, T/C [32]: 82.9%
viability, T/C [33]: 107%
